Consider nine compounds from article PMC7830893, “Four Novel Phenanthrene Derivatives with α-Glucosidase Inhibitory Activity from Gastrochilus bellinus” (Molecules, 2021).

Entries after “also recorded” stand apart in the source; their conditions may differ.

In test [1] the test system is α-glucosidase. As to the kind of experiment: α-glucosidase inhibitory assay (pNPG, absorbance at 405 nm). The test is classed as biochemical. The conditions noted are these: for α-glucosidase inhibitory activity compared with acarbose: comparison with the drug acarbose; for IC50: pNPG substrate, 37 °C, mean ± SD, triplicate. The procedure: The α-glucosidase enzyme inhibition assay was carried out according to the method in our previous report. The inhibitory activity was determined by measuring the p-nitrophenol, a yellow color substance that can be monitored at 405 nm, released from p-nitrophenyl-α-D-glucopyranoside (pNPG) by the α-glucosidase enzyme. The test samples were initially dissolved in 50% DMSO, and then, 10 µL of the sample solution and 40 µL of 0.1 unit/mL α-glucosidase were incubated at 37 °C for 10 min. After that, to start the reaction, 50 µL of 2 mM pNPG was added to the mixture and incubated at 37 °C for 20 min. One hundred microliters of 1 M Na2CO3 was added to stop the reaction, and then, the absorbance was measured at 405 nm. […] Each experiment was performed in triplicate.

For test [2], the system named is α-glucosidase. As to the kind of experiment: α-glucosidase enzyme kinetic study (Lineweaver–Burk and secondary plots). The test is classed as biochemical. The note with it: for mode of enzyme inhibition: Lineweaver–Burk plot. How it is done:
The enzyme kinetics parameters (Km and Vmax) were determined by analyzing the double reciprocal Lineweaver–Burk plot (1/V vs. 1/[S]). Each experiment was carried out by varying the concentration of pNPG (2.0, 1.0, 0.5, and 0.25 mM) in the absence and presence of different concentrations of the test sample. The reaction was monitored at 405 nm by a microplate reader every 5 min for a total time of 25 min. Each experiment was performed in triplicate. […] For compound 3, secondary plots were plots of the inverted values of Km (1/Km) as a function of inhibitor concentration. The inhibition constant (Ki) was then calculated from the intersection point.

Consider `COc1c(O)cc2c3c1COc1c(Cc4ccc(O)cc4)c(O)cc(c1-3)CC2` [Compound 1, gastrobellinol A], for which, in test [1], the “α-glucosidase inhibitory activity compared with acarbose” value is on record as “higher activity than the drug acarbose; also recorded: higher α-glucosidase inhibitory activity than acarbose” and half-maximal inhibition (IC50) required 88.7 ± 4.1 µM.
In the case of `C[C@H]1O[C@H](O[C@H]2[C@H](O)[C@@H](O)[C@@H](O[C@H]3[C@H](O)[C@@H](O)C(O)O[C@@H]3CO)O[C@@H]2CO)[C@H](O)[C@@H](O)[C@@H]1N[C@H]1C=C(CO)[C@@H](O)[C@H](O)[C@H]1O` (some centres unmarked) [Acarbose, acarbose, reference compound], the “mode of enzyme inhibition” value in test [2] is on record as “competitive inhibition”. In addition, the Vmax in test [2] (inhibitor dose 387 µM) and in test [2] (inhibitor dose 744 µM) was 0.1 ∆ A405/min in each case.
In the case of `COc1cc(/C=C/C=O)ccc1O` [Compound 7, coniferyl aldehyde], in test [1], the “α-glucosidase inhibitory activity compared with acarbose” value is “higher activity than the drug acarbose; also recorded: higher α-glucosidase inhibitory activity than acarbose” and 381 ± 9.3 µM corresponded to half-maximal inhibition (IC50).
Consider `COc1c(O)cc2ccc3c(Cc4ccc(O)cc4)c(O)cc4c3c2c1CO4` [Compound 3, gastrobellinol C], for which, in test [1], the “α-glucosidase inhibitory activity compared with acarbose” value was “higher activity than the drug acarbose; also recorded: higher α-glucosidase inhibitory activity than acarbose”. In test [1], the half-inhibitory concentration (IC50) (in general, the concentration at which inhibition is half-maximal) turned out to be 45.9 ± 2.8 µM. In test [2], the “mode of enzyme inhibition” value is reported as “competitive inhibition; also recorded: competitive inhibitor”. In addition, in test [2] (from secondary plot), the affinity corresponds to a Ki of 87.3 µM. Besides, the Vmax in test [2] (inhibitor dose 20 µM, pNPG 0.25–2.0 mM) is 0.1 ∆ A405/min; in test [2] (inhibitor dose 40 µM, pNPG 0.25–2.0 mM) it was 0.1 ∆ A405/min. Besides, in test [2] (unchanged at 20 µM and 40 µM compound 3), the “maximum velocity (Vmax)” value is given as 0.1 A405/min.
Regarding `O=Cc1ccc(O)cc1` [Compound 8, 4-hydroxybenzaldehyde], the “α-glucosidase inhibitory activity compared with acarbose” value in test [1] is on record as “higher α-glucosidase inhibitory activity than acarbose”.
For `COc1c(O)cc2c3c1COc1cc(O)c(Cc4ccc(O)cc4)c(c1-3)CC2` [Compound 13, 1-(4′-hydroxybenzyl)-imbricartin], in test [1], the “α-glucosidase inhibitory activity compared with acarbose” value is “higher activity than the drug acarbose; also recorded: higher α-glucosidase inhibitory activity than acarbose” and half-maximal inhibition (IC50) required 53.7 ± 12.5 µM.
In the same order, the values of `COc1cc2c3c(ccc4cc(O)c(OC)c(c43)CO2)c1Cc1ccc(O)cc1` [Compound 2, gastrobellinol B] are “higher activity than the drug acarbose; also recorded: higher α-glucosidase inhibitory activity than acarbose” and 97.8 ± 3.1 µM.
The like results for `COc1c(O)cc2c3c1COc1cc(O)cc(c1-3)CC2` [Compound 15, imbricatin] were, in that order, “higher activity than the drug acarbose; also recorded: higher α-glucosidase inhibitory activity than acarbose” and 301 ± 6.6 µM.
Regarding `COc1cc2ccc3cc(O)c(OC)c4c(=O)oc(c1)c2c34` [Compound 9, agrostophyllone], in test [1], the “α-glucosidase inhibitory activity compared with acarbose” value is “higher activity than the drug acarbose” and the half-maximal inhibitory concentration (IC50) was found to be 281 ± 15.9 µM.
